Laboratory results taken from paper PMC6746701, “A phyB-PIF1-SPA1 kinase regulatory complex promotes photomorphogenesis in Arabidopsis” (Nature Communications, 2019).

T1: full-length SPA1 (Arabidopsis thaliana, UniProt Q9SYX2)
T1 construct: full length, strep-tagged (3x Flag also cloned), Pichia pastoris GS115, tags kept
T1 sequence (Q9SYX2 1-1029): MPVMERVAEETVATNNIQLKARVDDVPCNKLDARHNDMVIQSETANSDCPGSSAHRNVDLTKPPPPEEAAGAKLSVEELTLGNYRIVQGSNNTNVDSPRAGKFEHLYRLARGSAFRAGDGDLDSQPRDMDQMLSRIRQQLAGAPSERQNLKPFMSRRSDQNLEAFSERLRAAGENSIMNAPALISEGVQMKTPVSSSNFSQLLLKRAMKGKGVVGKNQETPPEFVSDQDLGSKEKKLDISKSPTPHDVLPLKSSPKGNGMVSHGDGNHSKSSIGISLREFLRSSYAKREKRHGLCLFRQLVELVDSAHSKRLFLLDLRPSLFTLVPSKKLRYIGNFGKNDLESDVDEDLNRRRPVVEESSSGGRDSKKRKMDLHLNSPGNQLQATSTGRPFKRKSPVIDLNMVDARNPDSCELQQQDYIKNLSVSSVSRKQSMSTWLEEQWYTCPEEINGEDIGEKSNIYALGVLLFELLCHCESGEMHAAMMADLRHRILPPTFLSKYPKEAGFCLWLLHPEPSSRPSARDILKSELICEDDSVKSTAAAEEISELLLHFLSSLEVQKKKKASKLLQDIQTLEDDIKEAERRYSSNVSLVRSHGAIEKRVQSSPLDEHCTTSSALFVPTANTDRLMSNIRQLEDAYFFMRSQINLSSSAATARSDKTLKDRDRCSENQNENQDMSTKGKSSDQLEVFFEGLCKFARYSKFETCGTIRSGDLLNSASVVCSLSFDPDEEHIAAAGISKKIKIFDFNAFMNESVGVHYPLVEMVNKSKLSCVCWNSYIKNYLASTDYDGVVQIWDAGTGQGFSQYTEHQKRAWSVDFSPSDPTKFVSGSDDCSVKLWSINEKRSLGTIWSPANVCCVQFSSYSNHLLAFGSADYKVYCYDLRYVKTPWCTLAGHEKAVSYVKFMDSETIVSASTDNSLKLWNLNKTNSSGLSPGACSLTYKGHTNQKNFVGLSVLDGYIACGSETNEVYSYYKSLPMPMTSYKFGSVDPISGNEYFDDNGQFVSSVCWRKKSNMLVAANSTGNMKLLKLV

T2: phyB-GFP FL purified from yeast (Saccharomyces cerevisiae) (Arabidopsis, UniProt P14713 1-1172, phycocyanobilin (PCB) chromophore assembled)
T2 construct: not shown: GFP, C-terminal, kept
T2 sequence (looked up): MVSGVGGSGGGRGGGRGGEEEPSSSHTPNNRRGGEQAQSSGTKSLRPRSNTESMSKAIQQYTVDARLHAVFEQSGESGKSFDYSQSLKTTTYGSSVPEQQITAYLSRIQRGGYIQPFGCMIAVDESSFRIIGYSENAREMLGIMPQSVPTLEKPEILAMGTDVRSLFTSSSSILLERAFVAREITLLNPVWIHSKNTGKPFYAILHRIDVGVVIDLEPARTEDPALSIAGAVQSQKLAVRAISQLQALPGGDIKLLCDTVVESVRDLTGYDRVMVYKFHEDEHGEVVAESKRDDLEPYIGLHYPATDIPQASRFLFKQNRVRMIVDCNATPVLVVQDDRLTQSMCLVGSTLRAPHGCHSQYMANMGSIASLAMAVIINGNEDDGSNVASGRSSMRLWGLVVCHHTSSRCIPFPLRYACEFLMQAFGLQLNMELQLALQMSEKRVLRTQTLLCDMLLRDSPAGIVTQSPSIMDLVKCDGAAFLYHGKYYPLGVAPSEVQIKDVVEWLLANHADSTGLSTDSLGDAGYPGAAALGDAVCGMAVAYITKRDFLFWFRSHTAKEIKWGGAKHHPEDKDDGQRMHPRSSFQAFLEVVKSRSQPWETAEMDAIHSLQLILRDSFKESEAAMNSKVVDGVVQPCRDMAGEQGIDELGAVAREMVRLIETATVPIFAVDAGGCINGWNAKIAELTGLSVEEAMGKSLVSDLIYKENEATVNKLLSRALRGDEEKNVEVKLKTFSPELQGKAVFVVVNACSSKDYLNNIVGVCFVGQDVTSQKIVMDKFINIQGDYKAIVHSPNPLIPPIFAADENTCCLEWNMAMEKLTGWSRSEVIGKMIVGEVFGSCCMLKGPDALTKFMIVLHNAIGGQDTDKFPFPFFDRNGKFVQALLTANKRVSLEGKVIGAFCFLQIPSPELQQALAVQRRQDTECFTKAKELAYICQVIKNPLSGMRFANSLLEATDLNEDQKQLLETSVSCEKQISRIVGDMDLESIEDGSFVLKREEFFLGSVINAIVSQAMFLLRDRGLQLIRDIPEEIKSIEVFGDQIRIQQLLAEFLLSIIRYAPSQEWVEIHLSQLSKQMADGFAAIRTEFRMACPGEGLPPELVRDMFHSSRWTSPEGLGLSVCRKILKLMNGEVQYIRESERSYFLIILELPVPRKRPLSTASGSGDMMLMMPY

B1: GST-PIF1-strep (natural protein, Arabidopsis, UniProt Q8GZM7 1-478, looked up)
chain: MHHFVPDFDTDDDYVNNHNSSLNHLPRKSITTMGEDDDLMELLWQNGQVVVQNQRLHTKKPSSSPPKLLPSMDPQQQPSSDQNLFIQEDEMTSWLHYPLRDDDFCSDLLFSAAPTATATATVSQVTAARPPVSSTNESRPPVRNFMNFSRLRGDFNNGRGGESGPLLSKAVVRESTQVSPSATPSAAASESGLTRRTDGTDSSAVAGGGAYNRKGKAVAMTAPAIEITGTSSSVVSKSEIEPEKTNVDDRKRKEREATTTDETESRSEETKQARVSTTSTKRSRAAEVHNLSERKRRDRINERMKALQELIPRCNKSDKASMLDEAIEYMKSLQLQIQMMSMGCGMMPMMYPGMQQYMPHMAMGMGMNQPIPPPSFMPFPNMLAAQRPLPTQTHMAGSGPQYPVHASDPSRVFVPNQQYDPTSGQPQYPAGYTDPYQQFRGLHPTQPPQFQNQATSYPSSSRVSSSKESEDHGNHTTG
notes: source: E. coli BL21(DE3), purified (Strep-Tactin Sepharose); not shown: GST, N-terminal, kept; Strep tag, C-terminal, kept

What was measured:
full-length SPA1 = biological target: T1, full-length SPA1; test: in vitro kinase assay, autoradiogram; assay type: biochemical; conditions: GST-PIF1 as co-substrate, ATP 0.004-2.5 mM, 10 mM MgCl2, pH 7.5, 28 °C; labelled compound (gamma-32P)
[1] = biological target: T2, phyB-GFP FL purified from yeast …; test: pull-down; in vitro: phytochromes purified from yeast (S. cerevisiae) and GST-PIF1; light-dependent; conditions: both partners purified

| Molecule | in vitro kinase assay, autoradiogram (full-length SPA1) | binding result [1] |
| --- | --- | --- |
| Nc1ncnc2c1ncn2[C@@H]1O[C@H](COP(=O)(O)OP(=O)(O)OP(=O)(O)O)[C@@H](O)[C@H]1O [ATP] | SPA1 also phosphorylated PIF1 in an ATP concentration- and time-dependent manner | – |
| B1 | – | binds |
